Measured values reported in the NIST ThermoML archive (doi:10.1021/acs.jced.6b00268).
± gives the expanded uncertainty stated by the source.

Key:
[1] = Crystal; DTA
[2] = Molar enthalpy of transition or fusion; details: Crystal; DSC

- Normal melting temperature [1]: 80.47 ± 1.1 °C
- Molar enthalpy of transition or fusion [2]: 31.2 ± 0.7 kJ/mol
Compound: CC(C)OC(=O)C(C)(C)Oc1ccc(C(=O)c2ccc(Cl)cc2)cc1 [fenofibrate]
